From patent US10782295B2, “Cysteine-reactive ligand discovery in proteomes” (THE SCRIPPS RESEARCH INSTITUTE, priority 2013, dated 2020)

Assays:
[1] = target: T1, WT-ZAK (Homo sapiens, UniProt Q9NYL2); assay: gel-based ABPP with IA-rhodamine probe; format: binding; conditions: 10, 50 and 100 μM, 30 min; HEK-293T lysate
T1 construct: Full-length cDNA encoding human ZAK-13 (BC001401); expressed in transfected cells
Text: (§1) The gel signals for IA-labeling of WT-ZAK were blocked by pretreatment with HNE over a concentration range that closely matched the HNE-sensitivity profile observed for C22 in competitive isoTOP-ABPP experiments (FIG. 4b, compare to FIG. 3a). […] Considering further that C22 is predicted to reside adjacent to the ATP-binding loop of ZAK, we postulated that the HNE-induced loss of kinase activity might be due to blockade of ATP-binding.
Full-length cDNA encoding human ZAK-13 (BC001401) in pOTB7 was purchased from Open BioSystems and subcloned into pFLAG-CMV-6c (Sigma-Aldrich). ZAK-C22A and ZAK-K45M mutants were generated by QuikChange site-directed mutagenesis using the primer 5′-[…]-3′ (SEQ ID NO:1) and 5′-[…]-3′ (SEQ ID NO:2) and their complements. Wild-type and mutant ZAK were cloned into a modified pCLNCX retroviral vector. Retrovirus was prepared by taking 3.0 μg of each of pCLNCX and pCL-Ampho vectors and […], of FuGENE IID reagent (Roche) to transfect 60% confluent HEK-293T cells. […]
FLAG-tagged wild-type and C22A mutant ZAK were immunoprecipitated from HEK-293T cells ([…]). […] Gel samples were separated by SDS-PAGE (50 μL of sample/lane) and visualized in-gel using a Hitachi FMBio II flatbed laser-induced fluorescence scanner (MiraiBio, Alameda, Calif.). […]

[2] = target: T2, C22A-ZAK (Homo sapiens, UniProt Q9NYL2, C22A); assay: ZAK in vitro kinase activity assay (MBP substrate); format: biochemical; conditions: 10 or 100 μM HNE; immunoprecipitated enzyme
T2 construct: Full-length cDNA encoding human ZAK-13 (BC001401); expressed in transfected cells
Text: as §1
(§2) The kinase activity assay protocol was adapted from Yu et al^5. Kinase assay buffers, Myeilin Basic Protein (MBP) substrate, and ATP stock solution were purchased from SignalChem. Radio-labeled [^33P]-ATP was purchased from PerkinElmer. 10 mg of soluble lysate of HEK-293T cells transfected with each of wild-type, C22A and K45M of ZAK were immunoprecipitated and then eluted with 2×300 μL FLAG-peptide buffer. […] The spotted P81 strips were air dried and then washed with 10 mL of 1% phosphoric acid for 3×10 min ZAK activity was measured by counting the radioactivity on the P81 paper in the presence of scintillation fluid in a scintillation counter after subtracting the value obtained from the corresponding no substrate control, and was normalized to that of ZAK-WT without HNE treatment. […]

[3] = target: T1, WT-ZAK; assay: ZAK in vitro kinase activity assay (MBP substrate); format: biochemical; conditions: 10 or 100 μM HNE; immunoprecipitated enzyme
Text: as §1, §2

With `CCCCCC(O)/C=C/C=O` (stereo not drawn) [4-HNE, 4-Hydroxynonenal] the “gel signals for IA-labeling of WT-ZAK after pretreatment” value [1] was “blocked”, the “ZAK catalytic activity, C22A-ZAK residual activity” value [2] was “insensitive” and the “ZAK catalytic activity, WT-ZAK” value [3] was “inhibited”.
